Experimental data reported in BindingDB's records for doi:10.1016/j.bioorg.2017.03.015 (Silesian University of Technology, 2017).

Biological target: T1, Beta-1,4-galactosyltransferase 1 (Bos taurus, UniProt P08037)
T1 sequence (P08037 whole entry): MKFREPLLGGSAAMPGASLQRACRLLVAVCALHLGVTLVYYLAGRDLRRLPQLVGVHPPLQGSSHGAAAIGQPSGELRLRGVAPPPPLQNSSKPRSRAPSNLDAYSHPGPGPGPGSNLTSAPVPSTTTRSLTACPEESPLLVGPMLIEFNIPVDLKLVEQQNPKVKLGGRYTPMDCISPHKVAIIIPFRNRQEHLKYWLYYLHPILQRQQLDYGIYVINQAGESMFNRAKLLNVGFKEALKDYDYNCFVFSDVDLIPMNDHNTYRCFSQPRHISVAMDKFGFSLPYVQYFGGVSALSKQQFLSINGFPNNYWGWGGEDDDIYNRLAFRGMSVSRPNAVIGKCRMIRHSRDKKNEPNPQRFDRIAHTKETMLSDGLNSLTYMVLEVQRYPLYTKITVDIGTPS
Assay: β-1,4-Galactosyltransferase I Assay
Settings: pH 5.4; 30 °C
Experimental: β4GalT activity was assayed using UDP-Gal as glycosyl donor and (6-esculetinyl) β-D-glucopyranoside (esculine) as glycosyl acceptor. Assays were performed in a total volume of 200 μL. The reaction mixtures contained reagents in the following final concentrations: 50 mM Hepes buffer (pH 5.4), 10 mM MnCl2, 2.0 mg/mL BSA, 200 μM esculine, 40 μM UDP-Gal, 10 μL MeOH and potential inhibitors 1-6 at 0.8 mM concentration. The enzymatic reactions were initiated by the addition of 1 mU β4GalT and incubated at 30 °C for 60 min. Inactivation was quickly done by placing of the reaction solutions for 3 min in a thermo block set to 90 °C. Thesolutions were diluted with water (300 μL) and centrifuged for 20 min, filtered through M.E. Cellulose filter (0.2 μm × 13 mm) and the filtrate was injected into RP-HPLC system.

O=c1ccn([C@@H]2O[C@H](Cn3cc(CO[C@@H]4OC(CO)[C@@H](O)C(O)C4O)nn3)C(O)C2O)c(=O)[nH]1 (stereo partly drawn) [5'-deoxy-5'-[4-(β-D-glucopyranosyloxymethyl)-1,2-3-triazol-1-yl]uridine (5)]
IC50: 720 µM
